Laboratory results: ChEMBL document CHEMBL3228000, “Absolute configuration of glycerol derivatives. 7. Enantiomers of 2-[[[2-(2,6-dimethoxyphenoxy)ethyl]amino]methyl]-1,4-benzodioxane (WB-4101), a potent competitive alpha-adrenergic antagonist” (J Med Chem, 1979)

Columns and labels:
[1] = Competitive antagonist at alpha-adrenergic receptor in New Zealand rabbit aorta assessed as methoxamine-induced contraction after 45 mins; type: tissue-based, Oryctolagus cuniculus
[2] = target: Adrenergic receptor alpha; assay: Antagonist at postsynaptic alpha-adrenergic receptor in rat vas deferens; type: tissue-based

SMILES	pA2 [1]	pA2 [2]
COc1cccc(OC)c1OCCNCC1COc2ccccc2O1 (racemic)	8.83	9.8
COc1cccc(OC)c1OCCNC[C@@H]1COc2ccccc2O1.Cl	7.35	
COc1cccc(OC)c1OCCNC[C@H]1COc2ccccc2O1.Cl	9.02	
